Tests used:
[1] = target: T1, Cbl-b (Homo sapiens, UniProt Q13191); assay: Cbl-b inhibition assay (Cbl-b activity assay, FRET, Biological Example 1; 100 mM NaCl, 60 nM Src kinase); assay type: biochemical; conditions: upper bound stated in text lists; read-out: IC50 values in the Cbl-b inhibition assay of Biological Example 1
Method in brief: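 Here, the E2 UbcH5B, irreversibly linked to Bodipy-fluorescein ubiquitin, binds Cbl-b once Src kinase phosphorylates it; Cbl-b carries an N-terminal biotinylated Avi-tag captured by streptavidin-terbium. An absent FRET signal indicates inhibition.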

[2] = test system: T-cell; assay: IL-2 secretion from T-cells co-stimulated with anti-CD3 and anti-CD28 antibody (Biological Example 2); assay type: cell-based, human; conditions: Homo sapiens, T-cell, fold change over baseline, primary human total T-cells, read-out: IL-2 secretion Anti-CD3/Anti-CD28 stimulation; for fold induction at 0.3 µM: 0.3 μM Cbl-b inhibitor; for fold induction at 1 µM: 1 μM Cbl-b inhibitor; for fold induction at 4 µM: 4 μM Cbl-b inhibitor
Method in brief: (§1)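 T-cells were stimulated with anti-CD3 antibody alone or with anti-CD28 antibody, in the presence or absence of Cbl-b inhibitor. IL-2 secretion or CD25 surface staining was measured, and values expressed as fold over the uninhibited baseline […].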

[3] = test system: T-cell; assay: IL-2 secretion from T-cells stimulated with anti-CD3 antibody alone (Biological Example 2); assay type: cell-based, human; conditions: T-cell, fold change over baseline, primary human total T-cells, read-out: IL-2 secretion Anti-CD3 stimulation; for fold induction at 1 µM: 1 μM Cbl-b inhibitor; for fold induction at 8 µM: 8 μM Cbl-b inhibitor
[4] = test system: T-cell; assay: CD25 cell surface staining on T-cells co-stimulated with anti-CD3 and anti-CD28 antibody (Biological Example 2); assay type: cell-based, human; conditions: Homo sapiens, T-cell, fold change over baseline, primary human total T-cells, read-out: CD25 staining Anti-CD3/Anti-CD28 stimulation; for fold induction at 0.3 µM: 0.3 μM Cbl-b inhibitor; for fold induction at 1 µM: 1 μM Cbl-b inhibitor; for fold induction at 4 µM: 4 μM Cbl-b inhibitor
Method in brief: as §1

[5] = test system: T-cell; assay: CD25 cell surface staining on T-cells stimulated with anti-CD3 antibody alone (Biological Example 2); assay type: cell-based, human; conditions: T-cell, fold change over baseline, primary human total T-cells, read-out: CD25 staining Anti-CD3 stimulation; for fold induction at 1 µM: 1 μM Cbl-b inhibitor; for fold induction at 8 µM: 8 μM Cbl-b inhibitor
[6] = target: T1, Cbl-b; assay: Cbl-b activity assay (Cbl-b inhibition assay), TR-FRET of Cbl-b interaction with UbcH5B-Ub; assay type: biochemical; conditions: assay buffer with 100 mM NaCl, 60 nM Src kinase; read-out: Cbl-b activity IC50
Method in brief: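 UbcH5B (C85K) conjugated to N-terminally Bodipy-Fluorescein-labeled ubiquitin served as the fluorescent partner. After compound preincubation, Src kinase (60 nM) with 1 mM ATP and 5 mM MgCl2 (final) was added for 1.5 h, followed by a further 1 h incubation. Some values were obtained with 50 mM NaCl and 30 nM Src.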

T1 sequence (Q13191 36-427): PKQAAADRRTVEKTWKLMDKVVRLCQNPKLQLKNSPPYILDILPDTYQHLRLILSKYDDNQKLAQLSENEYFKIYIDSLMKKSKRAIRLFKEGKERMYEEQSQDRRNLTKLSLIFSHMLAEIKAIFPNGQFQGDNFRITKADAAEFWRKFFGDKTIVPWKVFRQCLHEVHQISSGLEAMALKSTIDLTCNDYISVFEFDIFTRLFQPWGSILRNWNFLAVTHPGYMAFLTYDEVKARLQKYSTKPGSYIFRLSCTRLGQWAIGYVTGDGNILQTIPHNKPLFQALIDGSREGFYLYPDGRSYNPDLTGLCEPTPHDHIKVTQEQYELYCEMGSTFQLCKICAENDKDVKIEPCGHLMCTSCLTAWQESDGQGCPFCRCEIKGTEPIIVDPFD

SMILES | IC50 [1] | fold induction at 0.3 µM [2] | fold induction at 1 µM [2] | fold induction at 4 µM [2] | fold induction at 1 µM [3] | fold induction at 8 µM [3] | fold induction at 0.3 µM [4] | fold induction at 1 µM [4] | fold induction at 4 µM [4] | fold induction at 1 µM [5] | fold induction at 8 µM [5] | IC50 [6]
Cc1cc(C(=O)Nc2cccc([C@H](C)Cc3nncn3C)c2)nc2ccnn12 [Compound 329, (R)-7-Methyl-N-(3-(1-(4-methyl-4H-1,2,4-triazol-3-yl)propan-2-yl)phenyl)pyrazolo[1,5-a]pyrimidine-5-carboxamide] | ≤ 300 nM | 1.01 to 2.5 | 1.01 to 2.5 | 5 to 7.5 | 0.101 to 0.15 | > 0.201 | 1.01 to 1.3 | 1.01 to 1.3 | 1.31 to 1.5 | 0.601 to 0.8 | > 1 | 100 to 300 nM
Cc1cc(C(=O)Nc2cccc([C@H]3C[C@H]3c3nncn3C)c2)nc(C2CC2)n1 [Compound 333, 2-cyclopropyl-6-methyl-N-{3-[(1 S,2R)-2-(4-methyl-1,2,4-triazol-3-yl)cyclopropyl]phenyl}pyrimidine-4-carboxamide] | ≤ 300 nM | 1.01 to 2.5 | 2.51 to 5 | 5 to 7.5 | 0.101 to 0.15 | > 0.201 | 1.01 to 1.3 | 1.01 to 1.3 | 1.01 to 1.3 | 0.801 to 1 | > 1 | 100 to 300 nM
Cc1cc(C(=O)Nc2cccc([C@H](C)Cc3nncs3)c2)nc(C2CC2)n1 [Compound 334, (R)-N-(3-(1-(1,3,4-thiadiazol-2-yl)propan-2-yl)phenyl)-2-cyclopropyl-6-methylpyrimidine-4-carboxamide] | ≤ 300 nM | 1.01 to 2.5 | 2.51 to 5 | 5 to 7.5 | 0.101 to 0.15 | > 0.201 | 1.01 to 1.3 | 1.01 to 1.3 | 1.01 to 1.3 | 0.601 to 0.8 | 0.801 to 1 | 100 to 300 nM
Cn1cnnc1CC1(c2cccc(NC(=O)c3ccnc(C(F)(F)F)n3)c2)COC1 [Compound 337, N-(3-(3-((4-methyl-4H-1,2,4-triazol-3-yl)methyl)oxetan-3-yl)phenyl)-2-(trifluoromethyl)pyrimidine-4-carboxamide] | ≤ 300 nM | 1.01 to 2.5 | 2.51 to 5 | 2.51 to 5 | 0.051 to 0.1 | 0.151 to 0.2 | 1.01 to 1.3 | 1.01 to 1.3 | 1.01 to 1.3 | 0.601 to 0.8 | > 1 | 100 to 300 nM
Cc1cc(C(=O)Nc2cccc(C3(Cc4nncn4C)COC3)c2)nc(C(F)(F)F)n1 [Compound 338, 6-methyl-N-(3-(3-((4-methyl-4H-1,2,4-triazol-3-yl)methyl)oxetan-3-yl)phenyl)-2-(trifluoromethyl)pyrimidine-4-carboxamide] | ≤ 100 nM | 1.01 to 2.5 | 2.51 to 5 | > 7.5 | 0.101 to 0.15 | > 0.201 | 1.01 to 1.3 | 1.01 to 1.3 | 1.01 to 1.3 | 0.801 to 1 | > 1 | < 100 nM
Cc1cc(C(=O)Nc2cccc(C3(Cc4nncn4C)COC3)c2)nc(C2CC2)c1 [Compound 339, 6-cyclopropyl-4-methyl-N-(3-(3-((4-methyl-4H-1,2,4-triazol-3-yl)methyl)oxetan-3-yl)phenyl)picolinamide] | ≤ 100 nM | 5 to 7.5 | > 7.5 | > 7.5 | > 0.201 | > 0.201 | 1.31 to 1.5 | 1.31 to 1.5 | 1.51 to 1.75 | > 1 | > 1 | < 100 nM
Cc1cc(C(=O)Nc2cccc(C3(Cc4nncn4C)COC3)c2)nc(C2CCC2)n1 [Compound 340, 2-cyclobutyl-6-methyl-N-(3-(3-((4-methyl-4H-1,2,4-triazol-3-yl)methyl)oxetan-3-yl)phenyl)pyrimidine-4-carboxamide] | ≤ 100 nM | 1.01 to 2.5 | 5 to 7.5 | > 7.5 | 0.151 to 0.2 | > 0.201 | 1.01 to 1.3 | 1.01 to 1.3 | 1.31 to 1.5 | 0.801 to 1 | > 1 | < 100 nM
Cn1cnnc1CC1(c2cccc(NC(=O)c3cc(C4CC4)nc(C(F)(F)F)n3)c2)COC1 [Compound 341, 6-cyclopropyl-N-(3-(3-((4-methyl-4H-1,2,4-triazol-3-yl)methyl)oxetan-3-yl)phenyl)-2-(trifluoromethyl)pyrimidine-4-carboxamide] | ≤ 100 nM | 2.51 to 5 | > 7.5 | > 7.5 | 0.151 to 0.2 | > 0.201 | 1.01 to 1.3 | 1.31 to 1.5 | 1.51 to 1.75 | 0.801 to 1 | > 1 | < 100 nM
COc1cc(C(=O)Nc2cccc(C3(Cc4nncn4C)COC3)c2)nc(C2CC2)n1 [Compound 342, 2-cyclopropyl-6-methoxy-N-(3-(3-((4-methyl-4H-1,2,4-triazol-3-yl)methyl)oxetan-3-yl)phenyl)pyrimidine-4-carboxamide] | ≤ 100 nM | 5 to 7.5 | > 7.5 | – | 0.151 to 0.2 | – | 1.01 to 1.3 | 1.31 to 1.5 | – | > 1 | – | < 100 nM
Cn1cnnc1CC1(c2cccc(NC(=O)c3[nH]nc4c3OCCC4)c2)COC1 [Compound 343, N-(3-(3-((4-Methyl-4H-1,2,4-triazol-3-yl)methyl)oxetan-3-yl)phenyl)-2,5,6,7-tetrahydropyrano[3,2-c]pyrazole-3-carboxamide] | ≤ 100 nM | 1.01 to 2.5 | 1.01 to 2.5 | – | 0.051 to 0.1 | – | 1.01 to 1.3 | 1.01 to 1.3 | – | 0.601 to 0.8 | – | < 100 nM
Cn1cnnc1C(F)(F)[C@](C)(F)c1cccc(NC(=O)c2nc3c(C(F)(F)F)cccc3[nH]2)c1 [Compound 345, (R)-N-(3-(1,1,2-trifluoro-1-(4-methyl-4H-1,2,4-triazol-3-yl)propan-2-yl)phenyl)-4-(trifluoromethyl)-1H-benzo[d]imidazole-2-carboxamide] | ≤ 300 nM | 1.01 to 2.5 | 1.01 to 2.5 | 2.51 to 5 | 0.051 to 0.1 | 0.151 to 0.2 | 1.01 to 1.3 | 1.01 to 1.3 | 1.01 to 1.3 | 0.601 to 0.8 | 0.601 to 0.8 | 100 to 300 nM

Reference: patent US20220324835A1 (Nurix Therapeutics, Inc., priority 2018, published 2022)
